The subject of this test is α-synuclein. The test can be described thus: α-synuclein ELISA in α-synuclein-transfected B35 cells. The test is classed as cell-based, rat. Here is the method:
Rat neuroblastoma B35 cells were grown in Dulbecco's Modified Eagle's Medium (DMEM) with 10% Fetal Bovine Serum (FBS) and 1% penicillin/streptomycin and incubated at 37° C. with 5% CO2. For the experiments, cells were transferred to 12-well plates (Cat. #150628, ThermoFisher, Waltham, MA) and grown to at least 70% confluence. Transient transfection was performed with 3 μg P301 L tau (Cat. #30145, Addgene) cDNA or 3 μg human α-synuclein cDNA using Fugene HD transfection reagent (Cat. #E2311, Promega, Madison WI) for 24 hours. Cells were treated with 1 mM, 100 μM, 10 μM, 1 μM, 0.1 μM, 0.01 μM, and 0.001 μM dissolved in DMSO or an equivalent 5 ul of DMSO for 5 hours. Cell culture media was collected and cells were harvested using sodium-tris, EDTA, NP-40 (STEN) buffer and centrifuged at 10,000×g for 20 minutes at 4′C and supernatant was collected. Cell viability was determined via lactate dehydrogenase assay (Cat. #88954, Thermofisher) and MTT assay (Cat. #V13154, Thermofisher). Protein was extracted by removing culture medium and adding 0.2 ml 1× STEN buffer (50 mM. Tris (pH 7.6), 150 mM NaCl, 2 mM EDTA, 0.2% NP-40, 0.2% BSA, 20 mM. PMSF and protease cocktail inhibitor) to cell layer and incubated on ice for 10 minutes. The bottom of the well was scraped and allowed to incubate on ice for an additional 10 minutes. Cell lysates were collected, stored at −80° C., and used for additional analyses.
To perform transient transfection of α-synuclein into the rat neuroblastoma B35 cells FuGene® HD Transfection Reagent (Promega Corporation, Madison, WI) was used. Cells were grown in 12-well dishes. […]
Human α-synuclein and p-tau ELISA were performed using 50 μl (1 μg/4 μl) of cell lysates detected with 50 μl primary antibody (3 h) and 100 μl anti-rabbit secondary antibody (30 min) at RT. α-Synuclein levels were measured using human specific ELISA (Invitrogen Inc., Carlsbad, CA) according to manufacturer's protocols. Tau was measured using specific tau at serine 396 according to manufacturer's protocol. […]

Molecules are shown by their SMILES. Entries after “also recorded” stand apart in the source; their conditions may differ.

For `Cc1cccc(-c2cc3nccc(Nc4cccc(O)c4)c3s2)c1` [BK40196], the level of alpha-synuclein result (transfected B35 cells, 1 mM and 100 uM) is “significantly reduced”.
Regarding `Cc1cccc(-c2cc3nccc(N4CCOCC4)c3s2)c1` [BK40197, 4-(2-(m-Tolyl)thieno[3,2-b]pyridin-7-yl)morpholine], for the setting “α-synuclein-transfected B35 cells, 24 hour transfection”, the α-synuclein level result is on record as “does not reduce alpha-synuclein; also recorded: does not significantly reduce”.

The values above are taken from patent US12246009B2, “Compositions and methods for treating neurodegenerative, myodegenerative, and lysosomal storage disorders” (GEORGETOWN UNIVERSITY, priority 2018, dated 2025).
